From BindingDB's records for patent US10377742 (Rigel Pharmaceuticals, 2019)
pEC50: −log10 of the molar value.

Molecular target: 5'-AMP-activated protein kinase catalytic subunit alpha-2 (Homo sapiens, UniProt P54646)
Assay: enzyme-linked immunosorbent assay
Protocol: Compounds were assayed for their ability to activate AMPK using an enzyme-linked immunosorbent assay. Reagents and procedures for measuring AMPK activation are well known and kits for AMPK activation assays are commercially available.

Chain of 5'-AMP-activated protein kinase catalytic subunit alpha-2 (P54646 whole entry): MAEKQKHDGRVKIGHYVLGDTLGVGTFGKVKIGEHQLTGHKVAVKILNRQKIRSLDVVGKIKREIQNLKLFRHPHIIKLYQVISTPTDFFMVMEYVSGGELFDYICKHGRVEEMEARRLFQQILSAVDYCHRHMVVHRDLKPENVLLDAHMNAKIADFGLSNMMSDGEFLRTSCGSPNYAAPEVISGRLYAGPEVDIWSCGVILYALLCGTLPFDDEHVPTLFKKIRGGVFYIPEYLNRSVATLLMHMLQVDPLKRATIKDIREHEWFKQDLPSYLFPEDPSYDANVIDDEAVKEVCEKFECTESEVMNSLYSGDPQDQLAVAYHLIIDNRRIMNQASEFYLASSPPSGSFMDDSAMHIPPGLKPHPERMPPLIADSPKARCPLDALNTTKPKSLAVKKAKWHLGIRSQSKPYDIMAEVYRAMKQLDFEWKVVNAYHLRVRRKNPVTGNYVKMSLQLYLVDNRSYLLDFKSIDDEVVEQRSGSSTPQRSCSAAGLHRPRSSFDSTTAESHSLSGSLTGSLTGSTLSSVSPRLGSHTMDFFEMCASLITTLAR

| pEC50 | Structure (SMILES) |
| --- | --- |
| < 6.00 | O=C(Nc1ccccc1-c1ccccc1)c1ccc(C(=O)N2CCN(Cc3ccc(F)cc3)CC2)cn1 [US10377742, Compound 19] |
| < 6.00 | O=C(Nc1ccc(-c2ccc([N+](=O)[O-])cc2)cc1)c1ccc(C(=O)N2CCN(Cc3ccc(F)cc3)CC2)cn1 [US10377742, Compound 20] |
